Assays:
M. smegmatis mc^2 155 [1] = experiment: Example IV: metabolic PG labeling of Msm with DBCO tags followed by azide fluorophore, flow cytometry; type: cell-based, Mycobacterium smegmatis; settings: for cellular fluorescence with azide-modified fluorophore in cells pre-labeled with TetD: 25 μM TetD, fluorophore 1 h at 37° C.
Description: General method for bacterial peptidoglycan modification. M. smegmatis strains was inoculated from the glycerol stock to the according media and grown for 24 hours until 0.5-0.6 OD, tetrapeptide probes were added to the media and the cells were grown overnight to achieve stationary phase. The cells were harvested the next day and spun down for 2 min at 3000 g, washed with phosphate buffered saline with tween80 (PBST, PBS with 0.05% tween 80) two times and resuspended in PBST to yield DBCO-modified M. smegmatis cells for further labeling and other experiments.
(§1) DBCOtetra compared with stereo control and single amino acid DBCO. M. smegmatis mc^2 155 was inoculated from stationary phase in 1:100 dilution to a fresh 7H9 media with ADC. 25 μM Dap-DBCO, DBCOtetra or DBCOtera(L) were added to the culture tubes respectively, and the cells were grown for 36-40 hours until stationary phase. The cells were harvested and spun down for 2 min at 3000 g, washed with PBST two times and resuspended in PBST. To a 96-well plate added 100 μL cells pre well with 50 μM FAM-N3 in triplicate. The plate was incubated in 37° C. for 1 h and spun down for 2 min at 3000 g. The supernatant was decanted, and the pellets were washed with PBST for 2 times and fixed with 4% formaldehyde for 15 mins. The samples were then analyzed by Attune™ NxT Acoustic Focusing Cytometer.
as §1, with “Confirm for click chemistry on PG.” for “DBCOtetra compared with stereo control and single amino acid DBCO.”, “μM” for “μM Dap-DBCO,”, “FL-tetra” for “DBCOtera(L)”, “uL” for “μL”, “FAM-N3 or 5-carboxy fluorescein accordingly” for “FAM-N3”
as §1, with “Different concentrations of DBCOtetra.” for “DBCOtetra compared with stereo control and single amino acid DBCO.”, “ADC. 5 μM, 10 μM or” for “ADC.”, “μM” for “μM Dap-DBCO,”, “DBCOtetra” for “DBCOtetra or DBCOtera(L)”, “1h” for “1 h”
Different concentration of FAM-N3 and different time. M. smegmatis mc^2 155 was inoculated from stationary phase in 1:100 dilution to a fresh 7H9 media with ADC. 25 μM DBCOtetra were added to the culture tubes, and the cells were grown for 36-40 hours until stationary phase. The cells were harvested and spun down for 2 min at 3000 g, washed with PBST two times and resuspended in PBST. To a 96-well plate added 100 μL cells pre well with different concentration of FAM-N3 described in the main text, 9 wells each. […] The samples were then analyzed by Attune™ NxT Acoustic Focusing Cytometer. […]

S. aureus (ATCC 25923) = experiment: Flow cytometry of S. aureus treated with thiol PG analogs / cystine enantiomers, then Mal-Fl; type: cell-based, Staphylococcus aureus; settings: DTT 5 mM, 25 μM Mal-Fl
Description: Flow cytometry analysis of S. aureus treated with thiol analogue panel. LB media containing 1 mM of each respective thiol analogue or dimethyl sulfoxide (DMSO) were prepared. S. aureus ATCC 25923 cells from an overnight culture were added to the medium (1:100 dilution) and allowed to grow overnight at 37° C. with shaking at 250 rpm. The cells were harvested at 4000 rpm and treated with 5 mM dithiothreitol (DTT) at the original culture volume for 5 minutes, to reverse any thiol oxidation that may have occurred. The cells were harvested at 4000 rpm and washed twice at the original culture volume with 1× phosphate-buffered saline (PBS) to remove residual DTT. […] The cells were washed once more to remove formaldehyde and then analyzed using the Attune NxT flow cytometer equipped with a 488 nm laser and 525/40 nm bandpass filter. The data were analyzed using the Attune NXT Software.
Flow cytometry analysis of S. aureus treated with cystine enantiomers. […] The cells were washed once more to remove formaldehyde and then analyzed using the Attune NxT flow cytometer as described above.
The first goal was to identify which cysteine-based label would result in the highest level of thiol handles on the surface of S. aureus. […] Incubation of cells with D-cystine (2) led to a ˜12-fold increase in cellular fluorescence relative to DMSO treated cells. […]

S. aureus (ΔclpX) = experiment: DBCO-pegn-Fl library in clpX deletion strain; type: cell-based, Staphylococcus aureus; settings: 1 mM D-LysAz, 25 μM probe, versus WT SA546
Description: TSB media containing 1 mM of D-LysAz were prepared. S. aureus SA546, ΔclpX, or ΔclpXΔltaS cells from overnight cultures were added to the medium (1:100 dilution) and allowed to grow overnight at 37° C. with shaking at 250 rpm. The cells were harvested at 4000 rpm and washed three times at the original culture volume with 1×PBS. Each strain was then treated with the DBCO-pegn-Fl library. All library members were used at a 25 μM concentration for 30 minutes at 37° C. and protected from light. The samples were subsequently harvested at 4000 rpm and washed three times with 1×PBS followed by fixation with 2% formaldehyde in 1×PBS for 30 minutes. The cells were washed once more to remove formaldehyde and then analyzed using the Attune NxT flow cytometer as described above.

[2] = test system: WT S. aureus (ATCC 25923); type: cell-based, Staphylococcus aureus
Description: LB media containing 1 mM of D-LysAz were prepared. S. aureus ATCC 25923 cells supplemented with 0.1 μg/mL tunicamycin, S. aureus ΔtarO cells supplemented with 150 μg/mL spectinomycin, or S. aureus ATCC 25923 cells from overnight cultures were added to the medium (1:100 dilution) and allowed to grow overnight at 37° C. with shaking at 250 rpm. The cells were harvested at 4000 rpm and washed three times at the original culture volume with 1×PBS. Each strain was then treated with the DBCO-pegn-Fl library. All library members were used at a 25 μM concentration for 30 minutes at 37° C. and protected from light. The samples were subsequently harvested at 4000 rpm and washed three times with 1×PBS followed by fixation with 2% formaldehyde in 1×PBS for 30 minutes. The cells were washed once more to remove formaldehyde and then analyzed using the Attune NxT flow cytometer as described above.
LB media containing either 1 mM of D-LysAz, N^ε-azido-L-lysine hydrochloride (L-LysAz), or DMSO were prepared. S. aureus ATCC 25923 cells were added to the LB medium (1:100) and allowed to grow overnight at 37° C. with shaking at 250 rpm. The cells were harvested at 4000 rpm and washed three times at the original culture volume with 1×PBS. […] The cells were washed once more to remove formaldehyde and then analyzed using the Attune NxT flow cytometer as described above.

M. smegmatis mc^2 155 [3] = experiment: Ldt inhibition with meropenem (incorporation of TetD); type: cell-based, Mycobacterium smegmatis; settings: 25 μM TetD, then Fl-az
Description: Ldt inhibition with meropenem. M. smegmatis mc^2 155 was inoculated from the glycerol stock by 1 to 1000 dilution to the according media and grown for 24 hours until 0.5-0.6 OD. 25 μM DBCOtetra were added to the media, and the cells were aliquoted to a 96-well culture plate with different concentration of meropenem described in the main text, in triplicate respectively. The cells were then grown overnight to achieve stationary phase. The cells were harvested and spun down for 2 min at 3000 g, washed with PBST two times and resuspended in PBST. To a 96-well plate added 100 uL cells pre well with 50 μM FAM-N3 accordingly transferred from the culture plate. The plate was incubated in 37° C. for 1 h and spun down for 2 min at 3000 g. The supernatant was decanted, and the pellets were washed with PBST for 2 times and fixed with 4% formaldehyde for 15 mins. The samples were then analyzed by Attune™ NxT Acoustic Focusing Cytometer.

S. aureus (ΔtarO) = experiment: Flow cytometry of D-cystine tagged WTA deletion strain treated with maleimide accessibility probes; type: cell-based, Staphylococcus aureus; settings: 0.1 μg/mL tunicamycin, 25 μM Mal-Fl
Description: (§2) Flow cytometry analysis of S. aureus strains treated with Mal-pegn-Fl and Mal-pron-Fl libraries. LB media containing 1 mM of D-cystine were prepared. S. aureus ATCC 25923, S. aureus ATCC 25923 supplemented with 0.1 μg/mL tunicamycin, S. aureus ΔtarO supplemented with 150 μg/mL spectinomycin, USA300, or S. aureus SCO1 cells from overnight cultures were added to the medium (1:100 dilution) and allowed to grow overnight at 37° C. with shaking at 250 rpm. The cells were harvested at 4000 rpm and treated with 5 mM DTT at the original culture volume for 5 minutes, to reverse any thiol oxidation that may have occurred. The cells were harvested at 4000 rpm and washed twice at the original culture volume with 1×PBS to remove residual DTT. Each strain was then treated with both libraries, Mal-pegn-Fl and Mal-pron-Fl, in parallel. All library members were used at a 25 μM concentration for 30 minutes at 37° C. and protected from light. The samples were subsequently harvested at 4000 rpm and washed three times with 1×PBS followed by fixation with 2% formaldehyde in 1×PBS for 30 minutes. The cells were washed once more to remove formaldehyde and then analyzed using the Attune NxT flow cytometer as described above.
(§3) Tunicamycin scan. […] The cells were washed once more to remove formaldehyde and then analyzed using the Attune NxT flow cytometer as described above.

[4] = test system: WT S. aureus (ATCC 25923); experiment: Flow cytometry of D-cystine tagged S. aureus treated with Mal-pegn-Fl and Mal-pron-Fl accessibility probes, with or without tunicamycin; type: cell-based, Staphylococcus aureus; settings: 0.001-0.1 μg/mL tunicamycin, 25 μM Mal-Fl
Description: as §2, §3

N[C@H](CNC(=O)CCC(=O)N1Cc2ccccc2C#Cc2ccccc21)C(=O)O [D-DapD]
PG labeling levels (fluorescence) above vehicle treated cells (M. smegmatis mc^2 155 [1]; Msm, metabolic label then Fl-az): ~40 fold

N[C@H](CSSC[C@@H](N)C(=O)O)C(=O)O [D-cystine]
increase in cellular fluorescence relative to DMSO treated cells (S. aureus (ATCC 25923); 1 mM PG analog overnight): ~12 fold

O=C1OC2(c3ccc(O)cc3Oc3cc(O)ccc32)c2ccc(NC(=S)NCCC(=O)N3Cc4ccccc4C#Cc4ccccc43)cc21 [DBCO-Fl, fluorescein-DBCO]
permeation of probe on deletion of clpX alone (S. aureus (ΔclpX)): did not lead to an increase

O=C(CCC(=O)N1Cc2ccccc2C#Cc2ccccc21)NCCOCCOCCOCCOCCOCCOCCOCCOCCOCCNC(=S)Nc1ccc(-c2c3ccc(=O)cc-3oc3cc(O)ccc23)c(C(=O)O)c1 [DBCO-peg9-Fl]
increase in cellular fluorescence on co-incubation of cells with tunicamycin [2]: ~17 fold

[N-]=[N+]=Nc1ccc2c(c1)C1(OC2=O)c2ccc(O)cc2Oc2cc(O)ccc21 [Fl-az, 6-azido-fluorescein]
cellular fluorescence with azide-modified fluorophore in cells pre-labeled with TetD (M. smegmatis mc^2 155 [1]): concentration-dependent and time-dependent increase in cellular fluorescence

Cl.[N-]=[N+]=NNCCCC[C@H](N)C(=O)O [L-LysAz, N^ε-azido-L-lysine hydrochloride]
cellular fluorescence after DBCO-Fl [2]: background fluorescence levels

N[C@@H](CSSC[C@H](N)C(=O)O)C(=O)O [L-cystine]
cellular fluorescence compared to DMSO treated cells (S. aureus (ATCC 25923); 1 mM overnight): minimal increase

C[C@@H](O)[C@H]1C(=O)N2C(C(=O)O)=C(S[C@@H]3CN[C@H](C(=O)N(C)C)C3)[C@H](C)[C@H]12 [meropenem]
cellular fluorescence with increasing levels of meropenem in the presence of TetD (M. smegmatis mc^2 155 [3]): concentration dependent decrease in cellular fluorescence

[N-]=[N+]=Nc1ccc2c(c1)C1(OC2=O)c2ccc(N)cc2Oc2cc(N)ccc21 [rhodamine 110, 6-azido-rhodamine 110]
cellular fluorescence with azide-modified fluorophore in cells pre-labeled with TetD (M. smegmatis mc^2 155 [1]): higher than Fl-az, albeit with a lower fold increase over unlabeled cells

tunicamycin
effect of tunicamycin on ΔtarO cells (S. aureus (ΔtarO)): minimal additive effect
effect of tunicamycin treatment on cellular fluorescence [4]: higher overall levels of cellular fluorescence in a concentration dependent manner

From patent US20240401101A1, “A LIVE CELL ASSAY TO DETERMINE PERMEABILITY OF TEST MOLECULES TO AND/OR WITHIN THE PEPTIDOGLYCAN SCAFFOLD OF BACTERIA CELLS” (priority 2021, published 2024)
